Laboratory results published in US10160772B2, “5,6-dihydro-4H-benzo[b]thieno-[2,3-d]azepine derivatives” (PULMOCIDE LIMITED, priority 2014, dated 2018).

Assays:
Format in all cases: cell-based
[1] = Cell viability: resazurin assay in Hep2 cells; details: human, 5 days incubation
Method: Cell Viability: Resazurin Assay Hep2 cells were seeded in 384-well plates (10^3/well/50 μL; BD Falcon Ref 353962) in FBS DMEM (5%, containing 2 mM L-glutamine and 1 mM sodium pyruvate) one day before experimentation. Serum-free DMEM (50 μL) was added to test wells while for control wells the media was removed and sterile water (100 μL) was added. Test compounds (0.5 μL DMSO solution) were added to give a final DMSO concentration of 0.5%. Hep2 cells were incubated with each test compound for 5 days (37° C./5% CO2 in 5% FBS) and then resazurin stock solution (5 μL; 0.03%) was added to each well and the plate incubated further for a further 6 hrs (37° C./5% CO2). The fluorescence of each well at 545 nm (excitation) and 590 nm (emission) was determined using a multi-scanner (Clariostar: BMG Labtech). The percentage loss of cell viability was calculated for each well relative to vehicle (0.5% DMSO) treatment. Where appropriate, a CC50 value was calculated from the concentration-response curve generated from the concentration-response curve for each test compound.

[2] = tested on: RSV B Washington strain; experiment: RSV B-induced CPE in Hep2 cells; details: human respiratory syncytial virus, Hep2 cells; for IC50: HEp-2, 144 h, RSV B Washington 0.1 MOI, 6 days, resazurin, read-out: RSV B CPE IC50; for inhibition at 1 µg/mL: HEp-2, at 1 μg/mL, read-out: RSV B CPE % Inhibition
Method: (§1) Biological Testing: Experimental Methods Assessment of RSV Induced CPE in Hep2 Cells
(§2) Hep2 cells were seeded (10^3/well/50 μL) in 384-well plates (Catalogue number 353962, BD Falcon, Oxford, UK) in 5% serum free-DMEM containing 2 mM L-glutamine and 1 mM sodium pyruvate one day before infection. RSV A2 strain (#0709161v, NCPV, Public Health England, Wiltshire) or RSV B Washington strain (VR-1580, ATCC, Manassas, Va. 20108) virus solutions were prepared in serum free-DMEM with 2 mM L-glutamine and 1 mM sodium pyruvate, and then added (50 μL/well) to achieve a final virus concentration of 1 MOI for RSV A and 0.1MOI for RSV B. Simultaneously test compounds (0.5 μL DMSO solution) were added to 100 μL of Hep2 cell culture with virus solution to provide a final DMSO solution of 0.5%. Plates were incubated (37° C./5% CO2) for 5 days for studies using RSV A2 strain or 6 days for those using RSV B strain, and then resazurin sodium salt (5 μL of 0.03% solution; Sigma-Aldrich, Dorset, UK) was added to each well and the plate incubated for a further 6 hr (37° C. and 5% CO2). The fluorescence of each well [545 nm (excitation)/590 nm (emission)] was determined using a multi-scanner (Clariostar: BMG, Buckinghamshire, UK). The percentage inhibition for each well was calculated and the IC50, IC75 and IC90 values were calculated from the concentration-response curve generated for each test compound.

[3] = tested on: RSV A2 F-protein expression; experiment: RSV A2 F-protein expression in BEAS2B bronchial epithelial cells; details: human respiratory syncytial virus, BEAS-2B, 72 h, read-out: RSV A2 F-protein IC50
Method: Assessment of RSV F Protein Expression in BEAS2B Bronchial Epithelial Cells
An early event which follows the infection of epithelial cells by RSV is the expression of RSV F-protein on the cells' surface. BEAS2B cells (SV40-immortalised human bronchial epithelial cell line) were grown in 96 well plates. Once more than 70% confluent, cells were infected with RSV A2 (#0709161v, NCPV, Public Health England, Wiltshire) at an MOI of 0.01 in clear RPMI-1640 medium (Life technologies, Paisley, UK) with 2% FBS (Life technologies, Paisley, UK), and incubated for 3 days (37° C./5% CO2).
Supernatant was aspirated and the cells were fixed with 4% formaldehyde (100 μL in PBS solution) for 20 min, washed 3 times with washing buffer (200 μL; PBS containing 0.05% Tween-20) and incubated with blocking solution (100 μL; 5% Marvel milk in PBS) for 1 hr. Cells were then washed with washing buffer (200 μL) and incubated for 1 hr at 37° C. with anti-RSV (2F7; mouse monoclonal, lot 160290, Cat. No. ab43812, Abcam plc, Cambridge, UK) F-fusion protein antibody (50 μL; prepared at a 1:1000 dilution in 5% milk/PBS-tween). After washing, cells were incubated with an HRP-conjugated anti-mouse IgG antibody (50 μL prepared at a 1:2000 dilution in 5% milk in PBS; lot 00095437, Cat. No. P0447, Dako UK Ltd, Cambridgeshire, UK) for 1 hr. Cells were washed twice with washing buffer and once with PBS. TMB substrate (100 μL; substrate reagent pack lot 320436, Cat. No. DY999, R&D Systems, Inc. Abingdon, UK) was then added and the reaction was stopped by the addition of aq sulfuric acid (50 μL; 2N). The resultant signal was determined colourimetrically (OD: 450 nm with a reference wavelength of 655 nm) in a microplate reader (Multiskan FC®, ThermoFisher Scientific). Cells were then washed and 1% crystal violet solution (50 μL; lot SLB4576, Cat. No. HT90132-1L, Sigma-Aldrich) was applied for 30 min. After washing with PBS (200 μL) 3 times, 1% SDS (100 μL) was added to each well, and plates were shaken lightly for 1 hr prior to reading the absorbance at 595 nm. The measured OD450-655 readings were corrected for cell number by dividing the OD450-655 by the OD595 readings. The percentage inhibition for each well was calculated and the IC50 value derived from the concentration-response curve generated for each test compound.

[4] = tested on: RSV A2 strain; experiment: RSV A2-induced CPE in Hep2 cells; details: human respiratory syncytial virus, Hep2 cells; for IC50: HEp-2, 120 h, RSV A2 1 MOI, 5 days, resazurin, read-out: RSV A2 CPE IC50; for inhibition at 0.1 µg/mL / inhibition at 0.01 µg/mL: HEp-2, read-out: RSV A2 CPE % Inhibition; for inhibition at 0.1 µg/mL: at 0.1 μg/mL; for inhibition at 0.01 µg/mL: at 0.01 μg/mL (footnote 2)
Method: as §1, §2

| Compound | CC50 at 5 days [1] | IC50 [2] | inhibition at 1 µg/mL [2] | IC50 [3] | IC50 [4] | inhibition at 0.1 µg/mL [4] | inhibition at 0.01 µg/mL [4] |
| --- | --- | --- | --- | --- | --- | --- | --- |
| O=C(Nc1ccc(C(=O)N2CCc3cc(-c4nc5ccccc5[nH]4)sc3-c3ccccc32)cc1)c1cccnc1N1CC2(CCOCC2)C1 [Example 7] | > 15000 nM | 28.7 nM | 100% | 0.94 nM | 0.12 nM | 100% |  |
| Cc1cnc(N2CC3(CCOCC3)C2)c(C(=O)Nc2ccc(C(=O)N3CCc4cc(-c5nc6cccc(F)c6[nH]5)sc4-c4ccccc43)cc2)c1 [Example 14, N-(4-(2-(7-fluoro-1H-benzo[d]imidazol-2-yl)-5,6-dihydro-4H-benzo[b]thieno[2,3-d]azepine-6-carbonyl)phenyl)-5-methyl-2-(7-oxa-2-azaspiro[3.5]nonan-2-yl)nicotinamide] | > 14300 nM | 0.99 nM | 100% | 0.31 nM | 0.24 nM |  | 93% |
| N#Cc1cccc2nc(-c3cc4c(s3)-c3ccccc3N(C(=O)c3ccc(NC(=O)c5cccnc5N5CC6(CCOCC6)C5)cc3)CC4)[nH]c12 [Example 12, N-(4-(2-(7-cyano-1H-benzo[d]imidazol-2-yl)-5,6-dihydro-4H-benzo[b]thieno[2,3-d]azepine-6-carbonyl)phenyl)-2-(7-oxa-2-azaspiro[3.5]nonan-2-yl)nicotinamide] | > 14500 nM | 111 nM | 100% | 0.21 nM | 0.94 nM | 100% |  |
| C#Cc1cnc(N2CC3(CCOCC3)C2)c(C(=O)Nc2ccc(C(=O)N3CCc4cc(-c5nc6ccccc6[nH]5)sc4-c4ccccc43)cc2)c1 [Example 5, N-(4-(2-(1H-Benzo[d]imidazol-2-yl)-5,6-dihydro-4H-benzo[b]thieno[2,3-d]azepine-6-carbonyl)phenyl)-5-ethynyl-2-(7-oxa-2-azaspiro[3,5]nonan-2-yl)nicotinamide] | > 14500 nM | 36.1 nM | 92% | 0.11 nM | 6.9 nM |  | 100% |
| CCc1cnc(N2CC3(CCOCC3)C2)c(C(=O)Nc2ccc(C(=O)N3CCc4cc(-c5nc6ccccc6[nH]5)sc4-c4ccccc43)cc2)c1 [Example 4, N-(4-(2-(1H-Benzo[d]imidazol-2-yl)-5,6-dihydro-4H-benzo[b]thieno[2,3-d]azepine-6-carbonyl)phenyl)-5-ethyl-2-(7-oxa-2-azaspiro[3,5]nonan-2-yl)nicotinamide] | > 14400 nM | 13.3 nM | 100% |  | 0.66 nM |  | 86% |
| O=C(Nc1ccc(C(=O)N2CCc3cc(-c4nc5ccccc5[nH]4)sc3-c3ccccc32)cc1)c1cc(C2CC2)cnc1N1CC2(CCOCC2)C1 [Example 6, N-(4-(2-(1H-Benzo[d]imidazol-2-yl)-5,6-dihydro-4H-benzo[b]thieno[2,3-d]azepine-6-carbonyl)phenyl)-5-cyclopropyl-2-(7-oxa-2-azaspiro[3,5]nonan-2-yl)nicotinamide] | > 14100 nM | 14.9 nM | 100% | 0.22 nM | 2.6 nM |  | 100% |
| Cc1cc(C(=O)Nc2ccc(C(=O)N3CCc4cc(-c5nc6cccc(C#N)c6[nH]5)sc4-c4ccccc43)cc2)c(N2CC3(CCOCC3)C2)nc1C [Example 25, N-(4-(2-(7-cyano-1H-benzo[d]imidazol-2-yl)-5,6-dihydro-4H-benzo[b]thieno[2,3-d]azepine-6-carbonyl)phenyl)-5,6-dimethyl-2-(7-oxa-2-azaspiro[3.5]nonan-2-yl)nicotinamide] | > 13900 nM | 15.8 nM | 100% |  | 0.69 nM |  | 100% |
| Cc1cnc(N2CC3(CCOCC3)C2)c(C(=O)Nc2ccc(C(=O)N3CCc4cc(-c5nc6cccc(C(F)(F)F)c6[nH]5)sc4-c4ccccc43)cc2)c1 [Example 17, 5-methyl-2-(7-oxa-2-azaspiro[3.5]nonan-2-yl)-N-(4-(2-(7-(trifluoromethyl)-1H-benzo[d]imidazol-2-yl)-5,6-dihydro-4H-benzo[b]thieno[2,3-d]azepine-6-carbonyl)phenyl)nicotinamide] | > 13400 nM | 13.2 nM | 100% |  | 0.11 nM | 100% |  |
| Cc1cnc(N2CC3(CCOCC3)C2)c(C(=O)Nc2ccc(C(=O)N3CCc4cc(-c5nc6cccc(C#N)c6[nH]5)sc4-c4ccccc43)cc2)c1 [Example 18, N-(4-(2-(7-cyano-1H-benzo[d]imidazol-2-yl)-5,6-dihydro-4H-benzo[b]thieno[2,3-d]azepine-6-carbonyl)phenyl)-5-methyl-2-(7-oxa-2-azaspiro[3.5]nonan-2-yl)nicotinamide] | > 14200 nM | 7.4 nM | 100% |  | 0.28 nM | 100% |  |
| Cc1cnc(N2CC3(CCOCC3)C2)c(C(=O)Nc2ccc(C(=O)N3CCc4cc(-c5nc6cc(F)cc(F)c6[nH]5)sc4-c4ccccc43)cc2)c1 [Example 19, N-(4-(2-(5,7-difluoro-1H-benzo[d]imidazol-2-yl)-5,6-dihydro-4H-benzo[b]thieno[2,3-d]azepine-6-carbonyl)phenyl)-5-methyl-2-(7-oxa-2-azaspiro[3.5]nonan-2-yl)nicotinamide] | > 14000 nM | 6.3 nM | 100% |  | 0.96 nM |  | 88% |
| O=C(Nc1ccc(C(=O)N2CCc3cc(-c4nc5cccc(F)c5[nH]4)sc3-c3ccccc32)cc1)c1cccnc1N1CC2(CCOCC2)C1 [Example 8, N-(4-(2-(7-fluoro-1H-benzo[d]imidazol-2-yl)-5,6-dihydro-4H-benzo[b]thieno[2,3-d]azepine-6-carbonyl)phenyl)-2-(7-oxa-2-azaspiro[3.5]nonan-2-yl)nicotinamide] | > 14600 nM | 26.8 nM | 100% |  | 0.18 nM | 100% |  |
